# From US7220420B2, “Hepatitis C virus-derived peptides capable of inducing cytotoxic T lymphocyte responses” (The Scripps Research Institute, priority 1994, dated 2007)
# Like-named read-outs stand apart in the source and are kept apart here. No end group written: not given here.
# Key:
# [1] = tested on: peptide-pulsed HLA-A2 matched JY EBV-BCL cells
# [2] = tested on: peptide pulsed HLA-A2 matched JY EBV-BCL target cells; type: cell-based, human
compound,measurement,setting,value
CC(C)C[C@H](NC(=O)[C@H](C)NC(=O)[C@H](CC(C)C)NC(=O)[C@@H](N)CC(C)C)C(=O)N[C@@H](CC(C)C)C(=O)N[C@@H](CO)C(=O)N[C@@H](CS)C(=O)N[C@@H](CC(C)C)C(=O)N[C@H](C(=O)N[C@H](C(=O)O)C(C)C)[C@@H](C)O [SEQ ID NO:2],peptide specific cytotoxic activity %,"[1]; subject C-2, 2 weeks, E/T 80",29%
same,peptide specific cytotoxic activity %,"[1]; subject C-2, 3 weeks, E/T 25",37%
same,peptide specific cytotoxic activity %,"[1]; subject C-2, 4 weeks, E/T 7",33%
same,peptide specific cytotoxic activity %,"[1]; subject C-2, 4 weeks, E/T 21",64%
same,peptide specific cytotoxic activity %,"[1]; subject C-2, 4 weeks, E/T 64",81%
same,peptide specific cytotoxic activity %,"[1]; subject C-2, 5 weeks, E/T 2",24%
same,peptide specific cytotoxic activity %,"[1]; subject C-2, 5 weeks, E/T 6",57%
same,peptide specific cytotoxic activity %,"[1]; subject C-2, 5 weeks, E/T 18",60%
same,peptide specific cytotoxic activity %,"[1]; subject C-3, 2 weeks, E/T 80",19%
same,peptide specific cytotoxic activity %,"[1]; subject C-3, 3 weeks, E/T 40",18%
same,peptide specific cytotoxic activity %,"[1]; subject C-3, 4 weeks, E/T 4",20%
same,peptide specific cytotoxic activity %,"[1]; subject C-3, 4 weeks, E/T 11",37%
same,peptide specific cytotoxic activity %,"[1]; subject C-3, 4 weeks, E/T 33",60%
same,peptide specific cytotoxic activity %,"[1]; subject C-3, 5 weeks, E/T 3",35%
same,peptide specific cytotoxic activity %,"[1]; subject C-3, 5 weeks, E/T 10",52%
same,peptide specific cytotoxic activity %,"[1]; subject C-3, 5 weeks, E/T 30",76%
ILDSFDPLV [SEQ ID NO:42],peptide specific cytotoxic activity %,"[1]; subject C-2, Exp I, 2 weeks, E/T 40",29%
same,peptide specific cytotoxic activity %,"[1]; subject C-2, Exp II (PBMC collected two months after Exp I), 2 weeks, E/T 40",2%
same,peptide specific cytotoxic activity %,"[1]; subject C-2, Exp II, 3 weeks, E/T 25",3%
same,peptide specific cytotoxic activity %,"[1]; subject C-2, Exp II, 4 weeks, E/T 10",10%
same,peptide specific cytotoxic activity %,"[1]; subject C-2, Exp II, 4 weeks, E/T 29",29%
same,peptide specific cytotoxic activity %,"[1]; subject C-2, Exp II, 4 weeks, E/T 88",59%
same,peptide specific cytotoxic activity %,"[1]; subject C-2, Exp II, 5 weeks, E/T 6",20%
same,peptide specific cytotoxic activity %,"[1]; subject C-2, Exp II, 5 weeks, E/T 19",52%
same,peptide specific cytotoxic activity %,"[1]; subject C-2, Exp II, 5 weeks, E/T 56",83%
LLCPAGHAV [SEQ ID NO:26],represents a CTL epitope (dagger mark),"[2]; panel of 53 peptides, assay of Example 2",LLCPAGHAV^†
same,lysis of target cells by peptide specific CTL lines (FIG. 2),"[1]; subject C-3, lines four weeks in culture, varying effector/target cell ratio",recognize and lyse HLA A2-matched EBV-BCL in a dose dependent fashion
LLFNILGGWV [SEQ ID NO:35],represents a CTL epitope (dagger mark),[2],LLFNILGGWV^†
